From US11654138B2, “Therapeutic agents for treating and preventing autoimmune diseases and cancer and a screening method” (KING FAISAL UNIVERSITY, priority 2019, dated 2023)

What was measured:
CIA = assay: Collagen-induced arthritis (CIA) model; assay type: in vivo, C57BL mice; conditions: for CIA clinical scores: 0.25 mg i.p. on days 0, 3, 6, 9, 12, 15, 18, vs corn oil, FIG. 7A; for Serum level of IL-6 / Frequency of CD4+IL-17+ cells in the secondary lymphoid organs: 0.25 mg i.p.; for Serum level of IL-6: day 45, FIG. 7B; for Frequency of CD4+IL-17+ cells in the secondary lymphoid organs: day 45, flow cytometry, FIG. 7C
IMQ-induced psoriasis = IMQ-induced psoriasis model; assay type: in vivo, male BALB/c mice; conditions: for Clinical scores (erythema and thickness of the right ear): topical ointment 40 mg/cm^2 day 0 to 8, vs Vaseline, FIG. 8A; for Il6 mRNA expression in whole biopsies of the right ear / Il17a mRNA expression in whole biopsies of the right ear: topical ointment, day 8, FIG. 8B
Procedure: Experimental psoriasis was induced following a modified method described previously (Sun et al. 2013). To induce disease in male BALB/c mice (6-8 weeks; n=6), imiquimod (IMG; Sichuan Med-Shine Pharmaceutical) at 5% was applied topically at 20 mg/cm^2 on the inside of the right ear for 8 consecutive days. An evaluation system for assessment of erythema and thickness of the ear was developed. Erythema was assessed using a table with red […] (0-4) and ear thickness (0-4) measured using a digital caliber on days 2, 4, 6, and 8 after first IMQ application. The sum of the two parameters scores (ranging from 0-8) was used to indicate the overall clinical score. Treatment ointment was prepared by mixing 1 mg of DMSO-dissolved POE or its representative analogs including POE A2 or POE A3 with 20 gm of Vaseline Petroleum Jelly Original (vehicle, Unilever Inc.); the mixture was then incubated at room temperature overnight. From day 0 to day 8 the mice were treated topically with the treatment ointment (40 mg/cm^2) or Vaseline (IMQ/control). The mRNAs encoding Il6 and Il17a were isolated from whole biopsies of the ear (day 8) and reverse transcribed to make cDNA. The cDNA was then amplified by real-time PCR using TaqMan Gene Expression Assays (Mm00446190_ml, Mm00439618_ml, respectively; Applied Biosystems). The relative expression of mRNAs was calculated by the ΔΔCt method and presented relative to that of IMQ control mice.

SMILES	CIA clinical scores (CIA)	Serum level of IL-6 (CIA)	Frequency of CD4+IL-17+ cells in the secondary lymphoid organs (CIA)	Clinical scores (erythema and thickness of the right ear) (IMQ-induced psoriasis)	Il6 mRNA expression in whole biopsies of the right ear (IMQ-induced psoriasis)	Il17a mRNA expression in whole biopsies of the right ear (IMQ-induced psoriasis)
Cc1nnc(NCC(=O)c2ccccc2)s1 [POE A2, 2-[(5-methyl-1,3,4-thiadiazol-2-yl)amino]-1-phenylethan-1-one]	comparably reduced CIA clinical scores	reduced serum levels of IL-6	reduced the frequency of CD4^+IL-17^+ cells	comparably reduced clinical scores	suppressed mRNA expression	suppressed mRNA expression
CC(=O)CSc1nnc(-c2cccnc2)o1 [POE A3, 2-Propanone, 1-[[5-(3-pyridinyl)-1,3,4-oxadiazol-2-yl]thio]-]	–	–	–	comparably reduced clinical scores	suppressed mRNA expression	suppressed mRNA expression
Cc1nnc(SCC(=O)c2ccccc2)o1 [POE A1]	comparably reduced CIA clinical scores	reduced serum levels of IL-6	reduced the frequency of CD4^+IL-17^+ cells	–	–	–
